Assay results from the supplement of paper PMC11451515.

Assays:
Assay in all cases: AUC of viability dose-response curve (% viability x log10 dose units); higher = less sensitive
Conditions in all cases: 48 h
NOMO1 = tested on: NOMO1
Outline: (§1)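 Over 48 h at 37°C, leukemia cells in 1536-well plates (500 or 1000 cells/well), adapted to each medium, received library compounds in DMSO at 11 threefold doses from 47 μM to 0.79 nM. CellTiter-Glo One luminescence, normalised per plate to DMSO and cell-free wells, was fitted by a four-parameter log-logistic function of log10 dose. The area under the curve was then integrated by trapezoidal rule, after scaling curves above full viability and removing those that failed quality control.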

P12-Ichikawa = tested on: P12-Ichikawa
Outline: as §1

SEM cells = tested on: SEM cells
Outline: as §1

[1] = RPMI 5 mM glucose + 10% dialyzed FBS

| SMILES | AUC of viability dose-response curve (NOMO1; HPLM + 10% dialyzed FBS) | AUC of viability dose-response curve (NOMO1; RPMI 5 mM glucose + 10% FBS) | AUC of viability dose-response curve (NOMO1; [1]) | AUC of viability dose-response curve (P12-Ichikawa; HPLM + 10% dialyzed FBS) | AUC of viability dose-response curve (P12-Ichikawa; RPMI 5 mM glucose + 10% FBS) | AUC of viability dose-response curve (P12-Ichikawa; [1]) | AUC of viability dose-response curve (SEM cells; HPLM + 10% dialyzed FBS) | AUC of viability dose-response curve (SEM cells; RPMI 5 mM glucose + 10% FBS) | AUC of viability dose-response curve (SEM cells; [1]) |
| --- | --- | --- | --- | --- | --- | --- | --- | --- | --- |
| CC(C)OC(=O)CCC/C=C\C[C@@H]1[C@@H](/C=C/[C@@H](O)COc2cccc(C(F)(F)F)c2)[C@H](O)C[C@@H]1O | 443 | 448 | 450 | 459 | 439 | 446 | 455 | 452 | 434 |
| CN[C@H](CC(C)C)C(=O)N[C@H]1C(=O)N[C@@H](CC(N)=O)C(=O)N[C@H]2C(=O)N[C@H]3C(=O)N[C@H](C(=O)N[C@H](C(=O)O)c4cc(O)cc(O)c4-c4cc3ccc4O)[C@H](O)c3ccc(c(Cl)c3)Oc3cc2cc(c3O[C@@H]2O[C@H](CO)[C@@H](O)[C@H](O)[C@H]2O[C@H]2C[C@](C)(N)[C@H](O)[C@H](C)O2)Oc2ccc(cc2Cl)[C@H]1O | 439 | 468 | 475 | 457 | 462 | 454 | 463 | 458 | 473 |
| Cc1ccc(C(C)(O)c2nc3ccccc3s2)c(C)c1 (stereo unspecified) | 427 | 433 | 457 | 412 | 415 | 426 | 386 | 387 | 386 |
| COCCOC(=O)C/1=C(C)/NC/2=C(C1C3=CC=CC(=C3)O)/C(=O)CC(C2)C4=C(OC)C=CC=C4 (stereo unspecified) | 454 | 469 | 467 | 450 | 451 | 448 | 425 | 415 | 413 |
| CC1(C)[C@@H](O[C@H]2O[C@H](C(=O)O)[C@@H](O)[C@H](O)[C@H]2O[C@@H]2O[C@H](C(=O)O)[C@@H](O)[C@H](O)[C@H]2O)CC[C@]2(C)[C@H]3C(=O)C=C4[C@@H]5C[C@@](C)(C(=O)O)CC[C@]5(C)CC[C@@]4(C)[C@]3(C)CC[C@@H]12 | 407 | 455 | 452 | 473 | 468 | 470 | 383 | 437 | 450 |
| C[C@H](NC(=O)C(=O)Nc1ccccc1C(C)(C)C)C(=O)N[C@@H](CC(=O)O)C(=O)COc1c(F)c(F)cc(F)c1F | 428 | 445 | 450 | 440 | 427 | 425 | 395 | 391 | 390 |
| C[C@@H]1CC[C@@]2(OC1)O[C@H]3C[C@H]4[C@@H]5C/C=C6/C[C@H](CC[C@]6(C)[C@H]5CC[C@]4(C)[C@H]3[C@@H]2C)O[C@@H]7O[C@H](CO)[C@@H](O[C@@H]8O[C@@H](C)[C@H](O)[C@@H](O)[C@H]8O)[C@H](O)[C@H]7O[C@@H]9O[C@@H](C)[C@H](O)[C@@H](O)[C@H]9O | 452 | 453 | 449 | 450 | 452 | 445 | 440 | 431 | 429 |
| Cc1ccc(NC(=O)C2(c3ccc4c(c3)OC(F)(F)O4)CC2)nc1-c1cccc(C(=O)O)c1 | 252 | 246 | 264 | 268 | 253 | 260 | 241 | 202 | 232 |
| Nc1nc(-c2nn(Cc3ccccc3F)c3ncccc23)nc(N)c1N1CCOCC1 | 461 | 458 | 467 | 469 | 463 | 473 | 462 | 458 | 467 |
| Cc1ccc(NC(=O)c2ccc(CN3CCN(C)CC3)cc2)cc1Nc1nccc(-c2cccnc2)n1 | 477 | 459 | 454 | 460 | 470 | 477 | 465 | 468 | 467 |
| COc1ccc(CCN2CCN(CCCc3ccccc3)CC2)cc1OC | 459 | 444 | 439 | 466 | 472 | 473 | 461 | 465 | 457 |
| Cc1cc2c(C(C)C)c(O)c(O)c(C=O)c2c(O)c1-c1c(C)cc2c(C(C)C)c(O)c(O)c(C=O)c2c1O | 445 | 449 | 452 | 453 | 451 | 452 | 459 | 447 | 444 |
| CN1CCCN(C(=O)c2cccc(-c3ccc(/C=C4/C(=O)Nc5ccc(Cl)cc54)o3)c2)CC1 | 399 | 446 | 436 | 419 | 372 | 396 | 362 | 324 | 332 |
| CC[C@H]1OC(=O)[C@H](C)[C@@H](O[C@H]2C[C@@](C)(OC)[C@@H](O)[C@H](C)O2)[C@H](C)[C@@H](O[C@@H]2O[C@@H](C)C[C@H](N(C)C)[C@H]2O)[C@](C)(O)C[C@@H](C)C(=O)[C@H](C)[C@@H](O)[C@]1(C)O | 423 | 403 | 429 | 402 | 402 | 411 | 401 | 418 | 400 |
| O=C(NC1CCNCC1)c1n[nH]cc1NC(=O)c1c(Cl)cccc1Cl | 321 | 332 | 324 | 345 | 341 | 357 | 319 | 323 | 326 |
| Cl.c1cnc2cc3c(cc2n1)C1CNCC3C1 | 465 | 470 | 467 | 474 | 444 | 467 | 458 | 444 | 461 |
| FC(F)(F)c1ccc(Nc2nc3cc(Oc4ccnc(-c5ncc(C(F)(F)F)[nH]5)c4)ccc3[nH]2)cc1 | 472 | 466 | 476 | 465 | 460 | 458 | 442 | 439 | 420 |
| O=C(O)[C@H](Cc1c[nH]c2ccccc12)N1C(=O)c2ccccc2C1=O | 440 | 426 | 470 | 474 | 462 | 460 | 445 | 440 | 405 |
| COC(=O)N1CCN(Cc2cccc(NC(=O)Nc3ccc(C)nc3)c2F)CC1 | 418 | 434 | 434 | 458 | 434 | 408 | 470 | 464 | 448 |
| O=C(Nc1ccc(OC(F)(F)F)cc1)c1sccc1NCc1ccnc2ccccc12 | 346 | 388 | 395 | 295 | 351 | 363 | 373 | 359 | 395 |
| O=C1NC(=O)[C@@H](c2cn3c4c(cccc24)CCC3)[C@@H]1c1c[nH]c2ccccc12 | 367 | 363 | 379 | 358 | 344 | 380 | 345 | 317 | 348 |
| Cc1[nH]c(/C=C2\C(=O)Nc3ccc([S+](=O)([O-])N(C)c4cccc(Cl)c4)cc32)c(C)c1C(=O)N1CCN(C)CC1 | 451 | 462 | 456 | 436 | 430 | 432 | 393 | 379 | 368 |
| Clc1ccc(C2(c3ccc(-c4cn[nH]c4)cc3)CCNCC2)cc1 | 427 | 389 | 395 | 419 | 369 | 390 | 384 | 445 | 388 |
| COc1cc2c(Nc3ccc(NC(=O)c4ccccc4)cc3)ncnc2cc1OCCCN1CCOCC1 | 456 | 417 | 425 | 383 | 390 | 386 | 396 | 389 | 385 |
| O=C1CSC(=O)N1C(CCc1ccncc1)COc1ccc(-c2cccc([N+](=O)[O-])c2)cc1 (stereo unspecified) | 444 | 446 | 454 | 447 | 394 | 436 | 427 | 433 | 467 |
| COc1cc2ncnc(-n3nc(-c4ccccn4)nc3N)c2cc1OC | 437 | 406 | 418 | 447 | 436 | 413 | 360 | 326 | 317 |
| CCCCN(CCCC)CCC(O)c1cc2c(Cl)cc(Cl)cc2c2cc(C(F)(F)F)ccc12 (stereo unspecified) | 453 | 459 | 471 | 466 | 459 | 452 | 442 | 408 | 415 |
| C[C@H]([C@H](O)CCC(C)(C)O)[C@H]1CC[C@@]2(O)C/3=C/C(=O)[C@@H]4C[C@@H](O)[C@@H](O)C[C@]4(C)[C@H]3CC[C@]12C | 470 | 468 | 476 | 460 | 452 | 470 | 461 | 458 | 474 |
| CCC1=C[C@@H]2CN(C1)Cc1c([nH]c3ccccc13)[C@@](C(=O)OC)(c1cc3c(cc1OC)N(C)[C@H]1[C@@](O)(C(=O)OC)[C@H](OC(C)=O)[C@]4(CC)C=CCN5CC[C@]31[C@@H]54)C2 | 256 | 259 | 260 | 202 | 182 | 238 | 244 | 187 | 241 |
